{
  "source": "patent US3959248A",
  "about": "“Analogs of thyrotropin-releasing hormone” (Merck & Co., Inc., priority 1975, dated 1976)",
  "key": {"thyrotropin release": {"system": "thyrotropin release", "assay": "thyrotropin releasing hormone activity (TS, thyrotropin stimulation), in vivo assay", "settings": "multiple of the control TS activity of TRH, which has the value 1", "method": "(§1) The tripeptides of the present invention are found to have anti-depressant activity and thyrotropin releasing hormone activity. Their activity as anti-depressants is as central nervous system (CNS) stimulants and was determined by testing representative tripeptides of the present invention using in vivo assay based on restoration of anti-convulsant action of methazolamide in picolinic acid treated mice. The thyrotropin releasing hormone activity of the present tripeptides was determined using the in vivo assay substantially as described in \"Vitamins and Hormone\" R.S. Harris et al, 29, 3-4 (1971).\n(§2) The following table contains activity data for a number of representative peptides of the present invention. The protocols used to obtain the data were those described above. The results are expressed numerically as multiples of the TS (thyrotropin stimulation) and AD (anti-depressant) activity compared to the control TS and AD activities of TRH which have the value 1. The designation S.N. is used to indicate substantially no detectable activity at the dosage level tested."}, "[1]": {"system": "picolinic acid treated mice", "assay": "anti-depressant (CNS stimulant) activity: restoration of anti-convulsant action of methazolamide in picolinic acid treated mice", "settings": "multiple of the control AD activity of TRH, which has the value 1, in vivo", "method": "as §1, §2"}},
  "data": [
    {"smiles": "NC(=O)[C@@H]1CCCN1C(=O)[C@H](Cc1c[nH]cn1)NC(=O)[C@@H]1CCC(=O)N1", "note": "[TRH, L-pyroglutamyl-L-histidyl-L-proline amide]", "values": [
      {"measurement": "TS (thyrotropin stimulation) activity", "setting": "thyrotropin release", "value": 1},
      {"measurement": "AD (anti-depressant) activity", "setting": "[1]", "value": 1}
    ]}
  ]
}
